Data: US9757375B2, “Compounds that inhibit human DNA ligases and methods of treating cancer” (University of Maryland, Baltimore, priority 2007, dated 2017)

Columns and labels:
[1] = system: HeLa cell extract; assay: Cell extract assay with 5′-flap substrate (DNA replication and long patch base excision repair); format: biochemical, human; details: for Cell Extract 100 (μM): BER inhibited: kind of BER not given; for final ligation step of the flap substrate repair reaction / flap removal by FEN-1: HeLa extract, 100 μmol/L (also 25 μM in the source), FIG. 4A
Protocol: Extracts were prepared from human cervical cancer HeLa cells as described previously (27, 31). For base excision repair (BER) assays, the extraction buffer contained 100 mmol/L of KCl, whereas for nonhomologous end-joining (NHEJ) assays, extraction buffer contained 400 mmol/L of KCl. Where indicated, DNA ligases were immunodepleted from the extracts as described (32) using protein A or G Sepharose beads (GE Healthcare) and anti-Lig1, anti-LigIII (GeneTex), or anti-LigIV (ABCAM) antibodies. Depletion was confirmed by immunoblotting.
A labeled 5′-flap substrate (0.1 pmol; (31)) was incubated with 20 μg of extract in the absence or presence of ligase inhibitors (100 μmol/L) at 25° C. for 5 min in ligation buffer (final volume, 50 μL). For short patch BER, a linear duplex containing a single uracil residue was preincised by treatment with uracil DNA glycosylase and APE1 (both from NEB) to generate a strand break with 3′ hydroxyl and 5′ deoxyribose phosphate termini. Reactions (50 μL) containing 0.3 pmol of the incised DNA substrate, 10 μCi of [α^32P]dTTP, and 20 μg of extract either in the absence or presence of ligase inhibitors (100 μmol/L) were incubated at 25° C. for 2 min in ligation buffer. After separation by denaturing polyacrylamide gel electrophoresis, labeled oligonucleotides were detected in the dried gel by phosphorImager analysis (Molecular Dynamics).
Next we used published cell extract assays (16,27,28) that measure different DNA replication and repair transactions to confirm the specificity of the DNA ligase inhibitors. FIG. 4A, the flap substrate (0.1 pmol) was incubated with cell extract (20 μg) in the absence (lane 2, Mock) or presence of 100 μmol/L, of L189 (lane 3), L67 (lane 4), or L82 (lane 5). hLigI (lane 6, I-dp) and hLigIIIa (lane 7, III-dp) were immunodepleted from the cell extracts prior to incubation with the DNA substrate. Lane 1, DNA substrate alone (Sub). The positions of the DNA substrate (24-mer), cleaved product (18-mer), and fully repaired product (43-mer). The flap substrate shown in FIG. 4A corresponds to an intermediate generated on the lagging strand during DNA replication and in the long patch subpathway of base excision repair. Previously it has been shown that DNA ligase I completes these two DNA transactions after removal of the flap by FEN-1 (16,28). A cell extract from the human cervical cancer cell line HeLa was incubated with the indicated labeled flap substrate that mimics a common intermediate in DNA replication and long patch base excision repair in the absence or presence of Compounds 67, 82, 184 and 189 (25 μM). After separation by denaturing gel electrophoresis, labeled fragments corresponding to the DNA substrate, cleaved product and fully repaired product were detected by phosphorimaging (28).

[2] = target: T1, T4 DNA ligase (Enterobacteria phage T4, UniProt P00970); assay: Radioactive gel-based DNA ligation assay; format: biochemical, bacteriophage T4; details: FIG. 2B
T1 construct: purchased NEB
T1 sequence (P00970 1-487): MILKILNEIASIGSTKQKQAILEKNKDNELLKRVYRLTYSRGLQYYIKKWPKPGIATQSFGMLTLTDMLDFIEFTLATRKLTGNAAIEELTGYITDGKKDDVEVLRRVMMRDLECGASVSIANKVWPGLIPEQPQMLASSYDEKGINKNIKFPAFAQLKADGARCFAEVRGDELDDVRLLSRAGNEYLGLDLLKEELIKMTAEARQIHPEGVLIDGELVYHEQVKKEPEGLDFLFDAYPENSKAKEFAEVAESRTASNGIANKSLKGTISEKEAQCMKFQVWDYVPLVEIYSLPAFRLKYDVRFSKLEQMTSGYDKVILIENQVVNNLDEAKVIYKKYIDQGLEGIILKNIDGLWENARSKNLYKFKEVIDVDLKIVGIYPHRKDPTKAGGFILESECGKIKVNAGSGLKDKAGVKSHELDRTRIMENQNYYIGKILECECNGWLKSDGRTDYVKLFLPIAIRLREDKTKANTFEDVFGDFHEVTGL
Protocol: A radioactive gel-based DNA ligation assay was performed as previously described (22). A 25-mer (5′-CGCCAGGGTTTTCCCAGTCACGACC-3′), and a 5′-[^32P] end-labeled 18-mer (5′-GTA AAA CGA CGG CCA GTG-3′) were annealed to a complementary 44-mer oligonucleotide, generating a linear duplex with a central nick. DNA joining reactions (30 μL) containing 0.5 pmol of labeled DNA substrate, and hLigI (0.02 pmol), hLigIIIβ (0.02 pmol), hLigIV/XRCC4 (0.1 pmol), or T4 DNA ligase (0.02 pmol) in ligation buffer were incubated in the absence or presence of ligase inhibitors at 25° C. for 30 min.
The effect of Compounds 67, 82 and 189 on DNA joining by human DNA ligases I, III and IV and T4 DNA ligase was determined. The IC50 values determined for Compounds 67, 82 and 189 using the fluorescence-based DNA joining assay (22) are shown for each of the DNA ligases. The effect of Compounds 67, 82 and 189 on DNA joining by human DNA ligases I, III and IV and T4 DNA ligase was determined using the radioactive gel-based assay (24). Representative gels of DNA ligation assays. The results of three independent experiments are shown graphically.

[3] = system: HCT116 cells; assay: Screen for potentiation of DNA damaging agents (MMS, camptothecin, cis-platinum, 3 aminobenzamide, ionizing radiation); format: cell-based, human; details: with 2 Gy ionizing radiation, tick mark only

SMILES	Cell Extract 100 (μM): BER inhibited [1]	final ligation step of the flap substrate repair reaction [1]	flap removal by FEN-1 [1]	inhibition of DNA joining by T4 DNA ligase [2]	% growth inhibition HCT116 [2 Gy] 5-15 uM [3]
Nc1nc(S)nc(O)c1/N=C/c1ccccc1 [Compound 189]	BER	inhibited the final ligation step of the repair reaction	had no effect on flap removal by FEN-1	not significantly inhibited	
CS(=O)(=O)NNC(=O)C(=O)NNc1ccccc1 [Compound 184]					✓
Cc1c(Br)cc(NCC(=O)N/N=C\c2cc([N+](=O)[O-])ccc2O)cc1Br [Compound 67]	BER	inhibited the final ligation step of the repair reaction	had no effect on flap removal by FEN-1	not significantly inhibited	
O=c1[nH]ncc(N/N=C\c2ccc(O)c([N+](=O)[O-])c2)c1Cl [Compound 82]	BER	inhibited the final ligation step of the repair reaction	had no effect on flap removal by FEN-1	not significantly inhibited	
O=C(c1ccc(O)cc1)c1ccccc1O [Compound 200]					✓
O=C(Cn1cnc([N+](=O)[O-])n1)N/N=C/c1ccc(O)cc1O [Compound 151]	BER				✓
